Patent US11059801B2, “Methods to induce targeted protein degradation through bifunctional molecules” (Dana-Farber Cancer Institute, Inc., priority 2014, dated 2021)

Experiments:
CRBN-DDB1/BRD4 = CRBN-DDB1/BRD4 (Homo sapiens (Human), UniProt O60885+Q96SW2); experiment: CRBN-DDB1/BRD4 Dimerization Assay; format: binding;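 further: AlphaScreen proximity signal between GST-tagged BRD4 and CRBN-DDB1 with glutathione donor and nickel chelate acceptor beads, read after 1 hr compound incubation at room temperature, values from Gaussian curve fit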
CUTLI = experiment: Cell viability, ATPlite, 48 hours; format: cell-based; details: CUTLI cells
Experimental: ATP content was measured as a surrogate for cellular viability using ATPlite (Promega).

797 = experiment: Cell IC50, 797 (Table 4-1); format: cell-based; details: read-out: IC50 (nM) 797; 797 cells
[1] = Gaussian fit of dimerization signal

| Structure (SMILES) | Dimer Amplitude (CRBN-DDB1/BRD4; [1]) | Dimer Mean (CRBN-DDB1/BRD4; [1]) | Dimer SD (CRBN-DDB1/BRD4; Gaussian fit parameter of dimerization signal) | IC50 (CUTLI) [nM] | IC50 797 [nM] |
| --- | --- | --- | --- | --- | --- |
| Cc1sc2c(c1C)C(c1ccc(C#N)cc1)=N[C@@H](CC(=O)NCCCCNC(=O)COc1cccc3c1C(=O)N(C1CCC(=O)NC1=O)C3=O)c1nnc(C)n1-2 (some centres unmarked) [dBET17] | 16182 | −7.422 | 0.7258 | > 20000 | – |
| COc1cc(C(=O)NCCCCCCCCNC(=O)COc2cccc3c2C(=O)N(C2CCC(=O)NC2=O)C3=O)ccc1Nc1ccc2c(n1)N(C1CCCC1)[C@H](C)C(=O)N2C (some centres unmarked) [dBET45] | – | – | – | – | 1450 |
